Experimental data published in PMC5113665, “HF‐Free Boc Synthesis of Peptide Thioesters for Ligation and Cyclization” (Angewandte Chemie (International Ed. in English), 2016).
pKd: −log10 of the molar value. Non-standard residues stand in square brackets, D forms with d. Residues, ends and D or L forms follow the SMILES beside them. Phe(4-F) = N[C@@H](Cc1ccc(F)cc1)C(=O)O; d2Nal = N[C@H](Cc1ccc2ccccc2c1)C(=O)O; dNle = CCCC[C@@H](N)C(=O)O

Molecular target: T1, KRAS-GTPγS (Homo sapiens, UniProt P01116)
T1 construct: proteins (amino acids 1-185) were; GST (N, cleaved yes); made in house; host or cells: Escherichia coli BL21
Assay: Microscale thermophoresis binding to labeled KRAS-GTPγS
Conditions: 25 °C, NT-647 labelled protein, GTPγS-loaded, average of three measurements, read-out: affinity for labeled KRAS-GTPγS
Excerpt: Cyclization in acetonitrile in the presence of an aqueous imidazole solution gave good results (Figure S23, SI). […] The binding was characterized by microscale thermophoresis studies (Figure 4 D).
VI. Biological analysis of Cyclorasin 9A5
Protein Expression and Purification material and methods:
Human wt-K-Ras and oncogenic K-Ras_G12V proteins (amino acids 1-185) were cloned in pGEX-6P-1 vector that encodes a glutathione S-transferase (GST) tag at the N-terminal of the expressed protein. The constructs were transformed in Escherichia coli BL21 cells – the cells were grown in Luria Broth (LB) media in the presence of 0.1 mg mL-1 ampicillin at 37 °C to an OD 700 then induced by the addition of 0.1 mM IPTG. The bacterial culture was then incubated overnight at 18 °C and harvested the second day by centrifugation. […]
Microscale thermophoresis (MST) measurements were performed using a NanoTemper Monolith™ NT.115 instrument (NanoTemper Technologies GmbH, München, Germany). […] Labeling levels (generally in the range 0.3-0.4 dye molecules per protein) were determined using calculated extinction coefficients and e647 = 250,000 M-1cm-1 for the dye concentration. […]
GTPγS (B) and K-Ras-G12V_ GDP (D). The Kd values for each interaction were calculated as an average of three measurements. […]

T1 sequence (P01116 1-185 isoform P01116-2): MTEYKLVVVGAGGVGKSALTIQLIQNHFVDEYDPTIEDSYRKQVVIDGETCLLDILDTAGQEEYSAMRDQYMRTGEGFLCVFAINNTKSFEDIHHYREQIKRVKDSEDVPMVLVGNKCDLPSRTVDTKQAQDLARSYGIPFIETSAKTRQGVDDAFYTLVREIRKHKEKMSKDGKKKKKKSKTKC

pKd: 6.22
SMILES: CCCC[C@H]1NC(=O)[C@H](Cc2ccc(F)cc2)NC(=O)[C@H](CCCNC(=N)N)NC(=O)[C@@H](Cc2ccc3ccccc3c2)NC(=O)[C@H](CCCNC(=N)N)NC(=O)[C@H](CCCNC(=N)N)NC(=O)[C@H](CCCNC(=N)N)NC(=O)[C@@H](C)NC(=O)[C@H]([C@@H](C)O)NC(=O)[C@H](Cc2c[nH]c3ccccc23)NC(=O)[C@H](CCC(N)=O)NC1=O [cyclorasin 9A5] (cyclo(WT[dA]RRR[d2Nal]R[Phe(4-F)][dNle]Q))
